Experimental data reported in US20250339531A1, “DUX4 POLYPEPTIDES AND NUCLEIC ACIDS FOR TREATING INFLAMMATORY AND AUTOIMMUNE CONDITIONS” (Fred Hutchinson Cancer Center, priority 2021, published 2025).
Entries after “also recorded” stand apart in the source; their conditions may differ.

Key:
[1] = system: HLA-A, HLA-B, HLA-C, PSMB8, PSMB9, PSMB10 mRNA; experiment: mRNA levels of MHC-I and immunoproteasome genes (RT-PCR, RNA-seq); type: cell-based, human; conditions: MB135iDUX4 cells
Experimental: Myoblasts were transfected with either (final concentrations) 10 μM 2′,3′-cGAMP (Sigma Aldrich), 2 μg/mL poly(I:C) (Invitrogen), or 1 μg/mL 3′ppp-dsRNA RIG-I ligand (Dan Stetson Lab, UW) using Lipofectamine 2000 according to manufacturer's protocol, or were stimulated with 1000U IFNβ (PeproTech) or 200 ng/ml IFNγ (R+D Systems) by addition directly to cell culture medium. After 16 hours of immune stimulation, RNA was collected from cells using the NucleoSpin RNA Kit (Macherey-Nagel) according to manufacturer's instructions. RNA samples were quantified by nanodrop and 1 μg of RNA per sample was treated with DNase I Amplification Grade (Thermo Fisher), and then synthesized into cDNA using the Superscript IV First-Strand Synthesis System, including oligo dT primers (Invitrogen). qPCR was run in 384-well plates on an Applied Biosystems QuantStudio 6 Flex Real-Time PCR System (ABI) and analyzed in Microsoft Excel.
(§1) Total RNA was isolated using the NucleoSpin RNA kit (Machery-Nagel) or Direct-zol RNA Mini-Prep Kit (Zymo Research) according to manufacturer's instructions. RNA-seq libraries were prepared using the Illumina TruSeq RNA Sample Prep v2 Kit and sequenced using 50 bp paired-end sequencing on the Illumina NextSeq platform by the Fred Hutchinson Cancer Center Genomics Core.

[2] = system: polysome association of mRNAs; experiment: Polysome profiling with RNA-seq; type: cell-based, human; conditions: DUX4 pulse+IFNG versus IFNG
Experimental: Polysome profiling was performed using three 70% confluent 15 cm plates of MB135iDUX4 myoblasts per treatment condition (n=3). MB135iDUX4 myoblasts were pulsed with or without doxycycline for 4 hours, incubated for 48 hours, supplemented with 50 ng/mL IFNG for 16 hours, and harvested at a terminal time point of 68 hours. To harvest, culture medium was supplemented with 100 μg/mL cycloheximide (CHX; Sigma) and cells were incubated at 37° C. for 10 minutes. Media was aspirated and each 15 cm plate of adherent cells was rinsed with 25 mL ice-cold PBS supplemented with 100 μg/mL cycloheximide, lifted with 0.25% Trypsin-EDTA supplemented with CHX, and resuspended in growth media supplemented with CHX. Cells were pelleted at 300 RCF and washed twice with ice-cold PBS supplemented with CHX. Cell pellets were flash frozen in liquid nitrogen and stored at −80° C. Cells were lysed with Polysome Lysis Buffer (10 mM Tris pH 8, 140 mM NaCl, 7.5 mM MgCl2, 0.25% NP-40, 0.1% Triton X-100, 150 μg/mL CHX, 20 mM DTT, 640U/mL SUPERase-In RNase Inhibitor) and clarified before quantification with the Bio-Rad Protein Assay. 1.5 mg of clarified lysate was loaded onto a 10-50% sucrose gradient prepared in DEPC-treated water with 25 mM Tris pH 7.4, 25 mM NaCl, 5 mM MgCl2, 100 μg/mL heparin, and 2 mM DTT. Gradients were fractionated using a Biocomp Piston Gradient Fractionator. Samples were resuspended in Trizol and Drosophila S2 cells were added as an internal spike-in control. RNA was extracted using the Direct-zol RNA Miniprep Kit (Zymo Research). Relative mRNA abundance for each sample was normalized to Drosophila spike-in to account for differences in RNA extraction efficiency (Taruttis et al., 2017).
as §1

[3] = system: MHC class I proteins (HLA-A/B/C); experiment: Immunoblot of IFNG-induced MHC class I protein, continuous or pulsed protocol, MB135 myoblasts; type: cell-based, human; conditions: 4 h doxycycline pulse, IFNG 28, 52 or 76 h later
[4] = system: STAT1; experiment: Anti-FLAG co-immunoprecipitation and western blot for STAT1; type: binding, human; conditions: anti-FLAG IP from MB135 cells ± IFNG
Experimental: Centrifugation at 2500 rcf at 4° C. for 5 min pelleted the nuclei, supernatant was discarded, and nuclei resuspended in 1 mL IP buffer pH 7.4 (25 mM Tris-HCl pH 7.5, 175 mM NaCl, 1 mM EDTA, 0.2% NP-40, 5% glycerol) and incubated for 1 hour at 4° C. with rotation then spun at 21000 rcf for 10 minutes at 4° C. to pellet insoluble debris. Protein concentration was determined using the Pierce BCA Protein Assay Kit (ThermoFisher, 23225). An equivalent amount of protein per sample was pre-cleared with Dynabeads Protein G (Invitrogen) bound to mouse IgG (Abcam #131368) for 1 hour at 4° C. with rotation. FLAG-tagged constructs were then immunoprecipitated with Dynabeads Protein G beads coupled to mouse anti-FLAG M2 mAb (Sigma F3165) for 3 hours at 4° C. with rotation. Beads were washed 3× with 1 mL IP buffer and eluted by adding 2× NuPage LDS Sample Buffer (Thermo Fisher, diluted from 4× with PBS) to the beads and heating for 10 minutes at 70° C.
Antibodies against STAT1 [EPR4407] (ab109320), pSTAT1 Y701 [M135] (ab29045), pSTAT1 S727 [EPR3146] (ab109461), YBX1 [EP2708Y] (ab76149), PABPC1 (ab21060), hnRNPM [EPR13509 (B)] (ab177957), PRKDC [Y393] (ab32566), and HSP90AB1 [EPR16621] (ab203085) were purchased from Abcam. Antibodies against FLAG tag [M2] (F1804) and [M2] (F3146) were purchased from Sigma Aldrich. Antibodies against DDX3X [D19B4] (8192S), hnRNPK [R332] (4675S), TRIM28 [C42G12] (4124S), PPP2R1A [81G5] (2041S), NCL [D4C70] (14574S), and MYC tag [71D10] (2278S), and IDO1 [D5J4E] (86630S) were purchased from Cell Signaling Technology. Antibodies against hnRNPU (14599-1-AP), CDK4 (11026-1-AP), and HAT1 (11432-1-AP) were purchased from ProteinTech. The antibody against HSPA8 [SR39-04] (PIMA532002) was purchased from ThermoFisher. The antibody against DUX4 (P2G4) was described previously (Geng et al., 2011, Immunodetection of human double homeobox 4. Hybridoma (Larchmt) 30, 125-130). The antibodies Goat anti-Rabbit IgG HRP (ThermoFisher, A27036) and Rat anti-Mouse IgG HRP for IP (Abcam, ab131368) were used as secondary antibodies against rabbit and mouse primary antibodies for western blotting.

Q: How did the “effect on IFNG-induced mRNAs of MHC class I / immunoproteasome genes, continuous protocol” value [1] turn out when “DUX4: human DUX4 protein SEQ ID NO:3 expressed from doxycycline inducible codon altered transgene SEQ ID NO:2” was run?
A: The value was “profound inhibition of the IFNG-induction of the mRNA for MHC class I genes; also recorded: partially suppresses the IFNG induction of the mRNAs for PSMB8, 9, and 10; also recorded: partly blocked IFNG stimulation of HLA-A, HLA-B, HLA-C, PSMB8, PMSB9, and PSMB10 mRNA levels”.

Q: And the “effect on IFNG-induced mRNAs of MHC class I / immunoproteasome genes, pulsed protocol” value [1]?
A: The value was “little suppression of their mRNAs; also recorded: nearly full induction of these mRNAs; also recorded: still exhibited IFNG-induced mRNA levels significantly above untreated samples”.

Q: And the “mRNAs reduced in the high polysome fraction” value ([2]; log 2FC<−1, p-adj<0.01)?
A: The value was 7765 genes.

Q: What about the “polysome-bound mRNAs significantly upregulated” value ([2]; log 2FC>1, p-adj<0.01) of the same substance?
A: The value was 256.

Q: And the “genes with decreased polysome association (high/sub ratio)” value ([2]; |log 2FC>1|, p-adj<0.01)?
A: Its value is 5800 genes.

Q: And the “genes with increased polysome association (high/sub ratio)” value ([2]; |log 2FC>1|, p-adj<0.01)?
A: The value was 323 genes.

Q: What about the “polysome association of specific mRNAs” value ([2]; high-to-sub polysome ratio) of the same substance?
A: Its value is “TOP mRNAs remain associated with polysomes; also recorded: HLA-A, HLA-B, and HLA-C mRNAs showed reduced polysome association; also recorded: PSMB8, PSMB9, and PSMB10 mRNAs remained associated with polysomes”.

Q: What about the “duration of MHC class I protein suppression after a pulse” value [3] of the same substance?
A: The value was “at Least Four Days; also recorded: becomes more pronounced between 24 and 72 hours after a pulse of DUX4; also recorded: for nearly four days; also recorded: suppressed MHC class I even four days later; also recorded: persists days after a DUX4 pulse”.

Q: Which “co-immunoprecipitation with STAT1 / phosphorylated STAT1” value ([4]; listed as DUX4-CTD) does the source give for “longCTD: 3×FLAG tag and nls in frame with carboxyterminal 271 amino acids of DUX4 (aa154-424), SEQ ID NOS: 8-9” here?
A: Its value is “phosphorylation at Y701 is necessary for enhanced interaction; also recorded: preferentially interacts with pSTAT1-Y701”.

Q: What about the “co-immunoprecipitation with STAT1 / phosphorylated STAT1” value ([4]; listed as DUX4 CTD) of the same substance?
A: The value was “showed stronger interaction with phosphorylated STAT1”.

Q: And the “co-immunoprecipitation with STAT1 / phosphorylated STAT1” value ([4]; listed as DUX4 longCTD)?
A: Its value is “both show binding to STAT1; also recorded: STAT1 is associated”.
